Results published in patent EP0100158A2, “(3-pyridinyl)heteroalkarylalkanols, alkanoic acids and esters” (THE UPJOHN COMPANY, priority 1982, dated 1984).

Molecular target: T1, TXA2 synthetase (Homo sapiens, UniProt P24557)
T1 construct: generated by mixing prostaglandin H2 (PGH2) with human platelet microsomes (HPM); from tissue; host or cells: human platelet microsomes
T1 sequence (P24557 1-533): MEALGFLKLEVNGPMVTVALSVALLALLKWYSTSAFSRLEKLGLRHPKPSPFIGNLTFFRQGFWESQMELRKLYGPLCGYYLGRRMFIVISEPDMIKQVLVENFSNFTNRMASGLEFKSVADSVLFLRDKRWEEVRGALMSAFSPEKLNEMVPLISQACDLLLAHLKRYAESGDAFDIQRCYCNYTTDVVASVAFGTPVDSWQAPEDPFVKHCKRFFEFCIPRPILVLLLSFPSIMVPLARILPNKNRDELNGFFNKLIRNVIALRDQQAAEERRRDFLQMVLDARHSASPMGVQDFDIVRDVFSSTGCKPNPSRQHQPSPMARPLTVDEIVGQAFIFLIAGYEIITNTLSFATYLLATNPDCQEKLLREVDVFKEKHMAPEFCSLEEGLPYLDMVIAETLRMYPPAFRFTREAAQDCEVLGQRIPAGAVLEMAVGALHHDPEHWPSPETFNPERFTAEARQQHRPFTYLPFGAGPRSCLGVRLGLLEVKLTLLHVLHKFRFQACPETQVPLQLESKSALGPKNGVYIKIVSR
Experiment: TXA2 inhibition test: TXA2 generated from PGH2 with human platelet microsomes, response measured on superfused rabbit aortic strips
Format: biochemical
Conditions: inhibition of TXA2 formation; test compound added to human platelet microsomes 5 minutes before mixing with PGH2; rabbit aorta readout; read-out: approximate ED50's (converted)
Description: The compounds of the present invention were tested for TXAz inhibition as follows: • Rabbit aortic strips were superfused in series with Krebs solution. Thromboxane Az (TXA2) was generated by mixing prostaglandin H2 (PGH2) with human platelet microsomes (HPM).
Potential inhibitors were tested by comparing the response of the rabbit aorta to the amount of TXAz produced by mixing PGH2 and HPM without the test compound in the reaction medium and then the amount of TXAz produced when the test compound was added to the HPM 5 minutes before the HPM was mixed with PGH2.

IC50: ~0.0376 µM
SMILES: O=C(O)c1cc(CNc2cccnc2)ccc1O
